pIC50: −log10 of the molar value. Where two headings read alike, the source gives them in different places.
Legend:
SARS-CoV-2 = experiment: microbe, parasite or virus in culture; assay type: cell-based, SARS-CoV-2 (βCoV/KOR/KCDC03/2020)
[1] = cited from earlier work
[2] = 0.3 mg/kg/day, report; cited from earlier work
[3] = 100 mg of CBD, healthy volunteers, reported; cited from earlier work
Vero cells = experiment: Vero cell viability in the dose-response curve assay; assay type: cell-based
Protocol: Dose-response curve (DRC) analysis was performed according to a conventionally known method (Jeon, S., Ko, M., Lee, J., Choi, I., Byun, S Y, Park, S., Shum, D., and Kim, S. (2020). Identification of antiviral drug candidates against SARS-CoV-2 from FDA-approved drugs. Antimicrobial Agents and Chemotherapy). Briefly, the Vero cells were seeded at 1.2×10^4 cells per well in DMEM containing 1× Antibiotic-Antimycotic solution (Gibco) and 2% FBS in a 384-well, μClear plate (Greiner Bio-One) and maintained for 24 h. After that, the cells were treated twice with compounds in the concentration range of 0.05-100 μM. A 9-point dose-response curve (DRC) was generated. For viral infection, the plate was transferred to a BSL-3 isolation facility and SARS-CoV-2 was added to an MOI value of 0.0125. Next, the cells were fixed at 24 hpi with 4% PFA and measured using the immunofluorescence method Operetta (Perkin Elmer).
Images acquired using software within the Pasteur Institute in Korea were used to estimate the infection rate and cell number, and antiviral activity was normalized to negative (0.5% DMSO) and positive controls (mock). The dose-response curve (DRC) was measured using the sigmoidal dose-response model Y=Bottom+(Top−Bottom)/(1+(IC50/X)^Hillslope) using Prism or 7XLfit 4 software. Finally, IC50 values were measured for curves fitted to the normalized activity data set. […]

CBR2 = CBR2 (Homo sapiens, UniProt P34972); details: reported (Pertwee 2008); cited from earlier work
Chain of CBR2 (P34972 whole entry): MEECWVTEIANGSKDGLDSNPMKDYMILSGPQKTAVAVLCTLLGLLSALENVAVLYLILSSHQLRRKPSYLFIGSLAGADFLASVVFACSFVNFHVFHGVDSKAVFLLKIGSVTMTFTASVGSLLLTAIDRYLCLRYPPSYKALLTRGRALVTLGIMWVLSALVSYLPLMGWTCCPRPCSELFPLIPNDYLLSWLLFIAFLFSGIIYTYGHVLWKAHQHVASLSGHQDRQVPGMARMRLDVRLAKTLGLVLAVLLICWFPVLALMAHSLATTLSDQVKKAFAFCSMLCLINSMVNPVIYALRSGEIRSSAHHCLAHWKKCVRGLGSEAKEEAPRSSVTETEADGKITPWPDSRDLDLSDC

[4] = Severe acute respiratory syndrome coronavirus 2, Vero; read-out: IC50, antiviral activity against SARS-CoV-2

## CCC(CC)COC(=O)[C@H](C)N[P@](=O)(OC[C@H]1O[C@@](C#N)(c2ccc3c(N)ncnn23)[C@H](O)[C@@H]1O)Oc1ccccc1 [remdesivir, reference compound]
SARS-CoV-2; Severe acute respiratory syndrome coronavirus 2, Vero, read-out: IC50, antiviral activity against SARS-CoV-2
  pIC50: 4.88

## C=C(C)[C@@H]1CCC(C)=C[C@H]1c1c(O)cc(CCCCC)cc1O [Compound T22, Cannabidiol]
[1]
  dose reported to be safe: up to 60 mg per day
SARS-CoV-2; [4]
  pIC50: 5.10
SARS-CoV-2; Severe acute respiratory syndrome coronavirus 2; at 12.50 μM, Vero cells
  inhibition at 12.5 µM: 99.2%
[2]
  effect in Crohn's disease: effective
[3]
  safety and tolerability: safe and tolerable
Vero cells; at 12.50 μM
  Vero cell viability: 97.46%
Vero cells; at 50 μM
  host cell viability: decreased sharply

## Cc1cccc(C)c1OCC(=O)N[C@@H](Cc1ccccc1)[C@@H](O)C[C@H](Cc1ccccc1)NC(=O)[C@H](C(C)C)N1CCCNC1=O [lopinavir, reference compound]
SARS-CoV-2; [4]
  pIC50: 5.01

## CCCCCc1cc(O)c2c(c1)OC(C)(C)c1ccc(C)cc1-2 [Compound T7, Cannabinol]
SARS-CoV-2; [4]
  pIC50: 4.96

## CCCCCc1cc(O)c2c(c1)OC(C)(C)[C@@H]1CCC(C)=C[C@@H]21 [Compound T4, Δ^9-Tetrahydrocannabinol]
CBR2
  action at CBR2: partial agonist
SARS-CoV-2; [4]
  pIC50: 4.99

## C=C(C)[C@@H]1CCC(C)=C[C@H]1c1c(O)cc(CCCCC)c(C(=O)O)c1O [Compound T23, Cannabidiolic acid]
SARS-CoV-2; [4]
  pIC50: 4.42

## CCN(CC)CCCC(C)Nc1ccnc2cc(Cl)ccc12 (stereo not drawn) [chloroquine, reference compound]
SARS-CoV-2; [4]
  pIC50: 5.09

## CCCCCc1cc2c(c(O)c1C(=O)O)[C@@H]1C=C(C)CC[C@H]1C(C)(C)O2 [Compound T3, Δ9-Tetrahydrocannabinolic acid]
SARS-CoV-2; [4]
  pIC50: 4.88
